Here are results for six compounds from patent US20180201592A1, “2-AMINO-1,3,4-THIADIAZINE AND 2-AMINO-1,3,4-OXADIAZINE BASED ANTIFUNGAL AGENTS” (F2G Limited, priority 2015, published 2018).

What all share (conditions): banded MIC grade
One assay relates to Aspergillus flavus. Nature of the assay: Minimum inhibitory concentration, YAG medium. The class given is cell-based. On the procedure:
(§1) The compound was dissolved in DMSO to give a solution containing 5 mg/mL. Tubes were stored at −20° C. until required. On the day of testing thawed solutions were vortex mixed to ensure homogeneity. 30 μL of solution was removed and added to 570 μL of sterile water in a separate sterile Eppendorf. The thoroughly mixed solution was used to prepare a series of doubling dilutions in water, in a deep well plate. Thirteen replicate plates were prepared using a Minitrak by aspirating 20 μL from each well into eleven clear polystyrene 96 well plates. Spores of Aspergillus spp. […] All plates were incubated for 24 hrs at 35° C. Growth was assessed by monitoring the optical density at 485 nm for each well. […] MICs are recorded as mg/L.

A further assay concerns Aspergillus niger. Kind of assay: Minimum inhibitory concentration, YAG medium. It counts as cell-based. On the procedure:
as §1

The subject of a further assay is Aspergillus terreus. Nature of the assay: Minimum inhibitory concentration, YAG medium. It counts as cell-based. How it is done: as §1
In a further assay the test system is Aspergillus fumigatus. Kind of assay: Minimum inhibitory concentration, YAG medium. It counts as cell-based. How it is done: (§2) Between 1 and 5 mgs of compound were accurately weighed out into a sterile Eppendorf tube. The compound was dissolved in DMSO to give a solution containing 5 mg/mL. Tubes were stored at −20° C. until required.
(§3) On the day of testing thawed solutions were vortex mixed to ensure homogeneity. 30 μL of solution was removed and added to 570 μL of sterile water in a separate sterile Eppendorf. The thoroughly mixed solution was used to prepare a series of doubling dilutions in water, in a deep well plate. Thirteen replicate plates were prepared using a Minitrak by aspirating 20 μL from each well into eleven clear polystyrene 96 well plates.
(§4) Spores of Aspergillus spp. (Aspergillus fumigatus [two strains], Aspergillus terreus [two strains], Aspergillus niger and Aspergillus flavus) were harvested from cultures grown on Sabarauds agar for 5 days, and resuspended in PBS/Tween 80 to approx 1×10^7 cfu/mL. Each organism suspension was diluted in YAG medium (1% glucose, 1% ammonium chloride and 0.5% yeast extract) to 0.5-2×10^4cfu/mL. 80 μL of an organism suspension was added to each well of the plate containing drug dilutions.
(§5) This typically produced MIC plates with a drug range 50-0.05 mg/L and organism inocula of 1-2×10^4 cfu/mL for Aspergillus spp. All plates were incubated for 24 hrs at 35° C. Growth was assessed by monitoring the optical density at 485 nm for each well. The MIC of a compound is the lowest drug concentration that inhibits growth of an organism by >70% compared with a drug free control. MICs are recorded as mg/L. In cases where the MIC of an organism is […] the MIC is repeated using a concentration range of 0.5-0.0005 mg/L.

The next assay deals with A. terreus 49. Kind of assay: Minimum inhibitory concentration, YAG medium. It counts as cell-based, Aspergillus terreus. On the procedure: as §1
A further assay deals with C. albicans. Kind of assay: Minimum inhibitory concentration, RPMI medium. The class given is cell-based. On the procedure: as §1, with “Assays were also performed in RPMI medium (Roswell Park Memorial Media 1640). To perform MIC tests in this medium, dilutions” for “Spores”, “compounds are prepared in microtitre plates as described above.” for “Aspergillus spp.”, “24-48” for “24”, “The following organisms were tested: […]” for “MICs are recorded as mg/L.”

In another assay the test system is C. tropicalis. Nature of the assay: Minimum inhibitory concentration, RPMI medium. The class given is cell-based. How it is done:
as §1, with “Assays were also performed in RPMI medium (Roswell Park Memorial Media 1640). To perform MIC tests in this medium, dilutions” for “Spores”, “compounds are prepared in microtitre plates as described above.” for “Aspergillus spp.”, “24-48” for “24”, “The following organisms were tested: […]” for “MICs are recorded as mg/L.”

A further assay has as its system C. parapsilosis. Nature of the assay: Minimum inhibitory concentration, RPMI medium. The class given is cell-based. On the procedure: as §1, with “Assays were also performed in RPMI medium (Roswell Park Memorial Media 1640). To perform MIC tests in this medium, dilutions” for “Spores”, “compounds are prepared in microtitre plates as described above.” for “Aspergillus spp.”, “24-48” for “24”, “The following organisms were tested: […]” for “MICs are recorded as mg/L.”

The test system of another assay is A. fumigatus 210. Nature of the assay: Minimum inhibitory concentration, YAG medium. It counts as cell-based, Aspergillus fumigatus. On the procedure:
as §2, §3, §4, §5

Consider `Cc1ccc(COCCC2=NN=C(N)SC2)cc1`, for which the “MIC grade, A. FLAVUS, YAG media” value in the assay with Aspergillus flavus was 3 (3: 0.2-1 mg/L). In addition, the “MIC grade, A. NIGER, YAG media” value in the assay with Aspergillus niger is 4 (4: <0.2 mg/L). In the assay with Aspergillus terreus, the “MIC grade, A. TERREUS, YAG media” value is on record as 4 (4: <0.2 mg/L). In addition, the “MIC grade, A. FUMIGATUS, YAG media” value in the assay on Aspergillus fumigatus is reported as 4 (4: <0.2 mg/L). Also, the “MIC grade, A. TERREUS 49, YAG media” value against A. terreus 49 was 4 (4: <0.2 mg/L). Besides, in the assay with C. albicans, the “MIC grade, C. ALBICANS, RPMI media” value is given as 3 (3: 1-5 mg/L). For the same compound, the “MIC grade, C. TROPICALIS, RPMI media” value in the assay with C. tropicalis is recorded as 2 (2: 5-20 mg/L). The “MIC grade, C. PARAPSILOSIS, RPMI media” value against C. parapsilosis is recorded as 3 (3: 1-5 mg/L). Besides, in the assay on A. fumigatus 210, the “MIC grade, A. FUMIGATUS 210, YAG media” value is 4 (4: <0.2 mg/L).

As to `NC1=NN=C(CCCCC(=O)Nc2ccccc2)CS1`, the “MIC grade, A. FLAVUS, YAG media” value in the assay with Aspergillus flavus is 3 (3: 0.2-1 mg/L). Besides, the “MIC grade, A. NIGER, YAG media” value against Aspergillus niger is reported as 2 (2: 1-5 mg/L). Also, the “MIC grade, A. TERREUS, YAG media” value against Aspergillus terreus is given as 2 (2: 1-5 mg/L). For the same compound, in the assay on Aspergillus fumigatus, the “MIC grade, A. FUMIGATUS, YAG media” value is 3 (3: 0.2-1 mg/L). Besides, the “MIC grade, A. TERREUS 49, YAG media” value against A. terreus 49 is listed as 2 (2: 1-5 mg/L). Further, in the assay with C. albicans, the “MIC grade, C. ALBICANS, RPMI media” value is recorded as 1 (1: ≥20 mg/L). Besides, the “MIC grade, C. TROPICALIS, RPMI media” value against C. tropicalis is 1 (1: ≥20 mg/L). Moreover, the “MIC grade, C. PARAPSILOSIS, RPMI media” value with C. parapsilosis was 2 (2: 5-20 mg/L). Moreover, the “MIC grade, A. FUMIGATUS 210, YAG media” value in the assay on A. fumigatus 210 was 3 (3: 0.2-1 mg/L).

Turning to `NC1=NN=C(CCCOc2ccccc2)CS1`, the “MIC grade, A. FLAVUS, YAG media” value against Aspergillus flavus is recorded as 4 (4: <0.2 mg/L). Moreover, the “MIC grade, A. NIGER, YAG media” value against Aspergillus niger was 4 (4: <0.2 mg/L). Moreover, the “MIC grade, A. TERREUS, YAG media” value against Aspergillus terreus is reported as 4 (4: <0.2 mg/L). For the same compound, in the assay with Aspergillus fumigatus, the “MIC grade, A. FUMIGATUS, YAG media” value is on record as 4 (4: <0.2 mg/L). Moreover, the “MIC grade, A. TERREUS 49, YAG media” value with A. terreus 49 is 3 (3: 0.2-1 mg/L). Also, in the assay with C. albicans, the “MIC grade, C. ALBICANS, RPMI media” value is reported as 2 (2: 5-20 mg/L). In the assay on C. tropicalis, the “MIC grade, C. TROPICALIS, RPMI media” value is recorded as 3 (3: 1-5 mg/L). Moreover, in the assay with C. parapsilosis, the “MIC grade, C. PARAPSILOSIS, RPMI media” value is 4 (4: <1 mg/L). Moreover, the “MIC grade, A. FUMIGATUS 210, YAG media” value in the assay on A. fumigatus 210 is reported as 4 (4: <0.2 mg/L).

Regarding `NC1=NN=C(CCCCCCOc2ccccc2)CS1`, the “MIC grade, A. FLAVUS, YAG media” value against Aspergillus flavus was 4 (4: <0.2 mg/L). Further, in the assay on Aspergillus niger, the “MIC grade, A. NIGER, YAG media” value is recorded as 4 (4: <0.2 mg/L). Also, the “MIC grade, A. TERREUS, YAG media” value in the assay on Aspergillus terreus is on record as 4 (4: <0.2 mg/L). For the same compound, the “MIC grade, A. FUMIGATUS, YAG media” value against Aspergillus fumigatus was 4 (4: <0.2 mg/L). The “MIC grade, A. TERREUS 49, YAG media” value against A. terreus 49 is reported as 4 (4: <0.2 mg/L). In the assay with C. albicans, the “MIC grade, C. ALBICANS, RPMI media” value is listed as 3 (3: 1-5 mg/L). Besides, in the assay with C. tropicalis, the “MIC grade, C. TROPICALIS, RPMI media” value was 4 (4: <1 mg/L). For the same compound, the “MIC grade, C. PARAPSILOSIS, RPMI media” value against C. parapsilosis was 4 (4: <1 mg/L). In addition, in the assay with A. fumigatus 210, the “MIC grade, A. FUMIGATUS 210, YAG media” value is 4 (4: <0.2 mg/L).

Take `NC1=NN=C(CCCCCCc2ccccc2)CS1`: the “MIC grade, A. FLAVUS, YAG media” value against Aspergillus flavus is given as 4 (4: <0.2 mg/L). The “MIC grade, A. NIGER, YAG media” value against Aspergillus niger is recorded as 4 (4: <0.2 mg/L). In the assay with Aspergillus terreus, the “MIC grade, A. TERREUS, YAG media” value is 4 (4: <0.2 mg/L). In addition, the “MIC grade, A. FUMIGATUS, YAG media” value in the assay with Aspergillus fumigatus was 4 (4: <0.2 mg/L). Also, in the assay with A. terreus 49, the “MIC grade, A. TERREUS 49, YAG media” value was 3 (3: 0.2-1 mg/L). Further, the “MIC grade, C. ALBICANS, RPMI media” value against C. albicans is recorded as 2 (2: 5-20 mg/L). The “MIC grade, C. TROPICALIS, RPMI media” value against C. tropicalis is 3 (3: 1-5 mg/L). In addition, the “MIC grade, C. PARAPSILOSIS, RPMI media” value against C. parapsilosis was 4 (4: <1 mg/L). The “MIC grade, A. FUMIGATUS 210, YAG media” value with A. fumigatus 210 is given as 4 (4: <0.2 mg/L).

Turning to `NC1=NN=C(COc2ccccc2)CS1`, in the assay on Aspergillus flavus, the “MIC grade, A. FLAVUS, YAG media” value is recorded as 4 (4: <0.2 mg/L). In addition, the “MIC grade, A. NIGER, YAG media” value with Aspergillus niger is 3 (3: 0.2-1 mg/L). The “MIC grade, A. TERREUS, YAG media” value against Aspergillus terreus is given as 3 (3: 0.2-1 mg/L). In addition, in the assay with Aspergillus fumigatus, the “MIC grade, A. FUMIGATUS, YAG media” value is on record as 4 (4: <0.2 mg/L). For the same compound, the “MIC grade, A. TERREUS 49, YAG media” value in the assay with A. terreus 49 is recorded as 3 (3: 0.2-1 mg/L). In the assay with C. albicans, the “MIC grade, C. ALBICANS, RPMI media” value is reported as 2 (2: 5-20 mg/L). Also, in the assay with C. tropicalis, the “MIC grade, C. TROPICALIS, RPMI media” value is 2 (2: 5-20 mg/L). In addition, the “MIC grade, C. PARAPSILOSIS, RPMI media” value in the assay with C. parapsilosis is 4 (4: <1 mg/L). Further, in the assay with A. fumigatus 210, the “MIC grade, A. FUMIGATUS 210, YAG media” value is 4 (4: <0.2 mg/L).
